Experimental findings from PubChem BioAssay (NCI) are described below.

Test systems include HOP-92 NSCLC; HL-60(TB) leukemia; LOX IMVI melanoma; SW-620 colon; MDA-MB-435; OVCAR-3 ovarian; SK-MEL-2 melanoma; CCRF-CEM leukemia; NCI-H23 lung; SF-268 CNS; K-562 leukemia; HCC-2998 colon; OVCAR-5 ovarian; M14 melanoma; NCI/ADR-RES ovarian; NCI-H226 lung.
Assay in all cases: inhibition of tumour cell growth, NCI panel, 48 h

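Each compound was tested at five concentrations against cells in 96-well plates for 48 hours. The concentration for full growth arrest is given as TGI.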

Turning to `Cc1cc(S(=O)(=O)Nc2nc3ccccc3[nH]2)c(S)cc1Cl`, the TGI was greater than 100 µM in the test on HOP-92 NSCLC; greater than 100 µM with HL-60(TB) leukemia; 39.8 µM in the test with LOX IMVI melanoma; greater than 100 µM in the test on SW-620 colon; greater than 100 µM in the test on MDA-MB-435; greater than 100 µM with OVCAR-3 ovarian. Besides, the TGI in the test on SK-MEL-2 melanoma is greater than 100 µM; in the test on CCRF-CEM leukemia, 80.6 µM; with NCI-H23 lung, greater than 100 µM; in the test with SF-268 CNS it was greater than 100 µM; with K-562 leukemia, greater than 100 µM; with HCC-2998 colon, greater than 100 µM. Also, the TGI in the test on OVCAR-5 ovarian, in the test with M14 melanoma and in the test on NCI/ADR-RES ovarian was greater than 100 µM in each case.

Take `CCOc1ncn(-c2ccc(NC(=S)Nc3cnccn3)cc2)n1`: the TGI with HOP-92 NSCLC, in the test on HL-60(TB) leukemia, in the test on MDA-MB-435, in the test with OVCAR-3 ovarian, in the test with SK-MEL-2 melanoma and with CCRF-CEM leukemia was greater than 10 µM in each case. The TGI in the test on NCI-H226 lung, in the test with NCI-H23 lung, in the test with SF-268 CNS, in the test with K-562 leukemia, with OVCAR-5 ovarian and with M14 melanoma was greater than 10 µM in each case. Moreover, in the test on NCI/ADR-RES ovarian, the TGI is greater than 10 µM.

Regarding `CN(C)Cc1cc(N=Nc2ccccc2Cl)ccc1O`, the TGI with HOP-92 NSCLC was greater than 100 µM; in the test on HL-60(TB) leukemia, 29.3 µM; with LOX IMVI melanoma it was 25.3 µM; with SW-620 colon, 28 µM; in the test with MDA-MB-435 it was 32.9 µM; in the test on OVCAR-3 ovarian, 66.9 µM. Moreover, the TGI was 54.2 µM in the test on CCRF-CEM leukemia; 40 µM in the test with NCI-H226 lung; 83.9 µM in the test with NCI-H23 lung; greater than 100 µM in the test with SF-268 CNS; 38.4 µM with K-562 leukemia; 26.8 µM with HCC-2998 colon. In addition, the TGI came to 63.2 µM in the test with OVCAR-5 ovarian, 44.5 µM with M14 melanoma and 74.7 µM in the test with NCI/ADR-RES ovarian.

For the compound `CC(=O)OCC1OC(O[C@@H]2C[C@H]3C(C)(C)[C@H](OC(C)=O)CC[C@]3(C)[C@H]3CC[C@]4(C)C(=CC[C@H]4[C@@H](C)C[C@@H](O)[C@H](O)C(C)(C)O)[C@@]32C)C(O)C(O)C1O` (some centres not stated), the TGI was 30.9 µM with HOP-92 NSCLC; 33.3 µM with HL-60(TB) leukemia; 30.2 µM in the test on LOX IMVI melanoma; 32.8 µM with SW-620 colon; 28 µM in the test on MDA-MB-435; 28.7 µM in the test on OVCAR-3 ovarian. The TGI came out at 31.1 µM in the test with SK-MEL-2 melanoma; 35.1 µM in the test with CCRF-CEM leukemia; 35.5 µM in the test with NCI-H23 lung; 29.3 µM with SF-268 CNS; 37.7 µM in the test with K-562 leukemia; 35.1 µM in the test on HCC-2998 colon. Moreover, the TGI was 27.1 µM in the test with OVCAR-5 ovarian, 36.5 µM in the test with M14 melanoma and greater than 100 µM in the test on NCI/ADR-RES ovarian.

For the compound `CC(C)Oc1c(C2(c3ccccc3O)SCCCS2)c(=O)c1=O`, the TGI in the test with HOP-92 NSCLC, in the test with HL-60(TB) leukemia, with LOX IMVI melanoma, in the test with SW-620 colon, in the test with MDA-MB-435 and in the test on OVCAR-3 ovarian was greater than 100 µM throughout. Further, the TGI with SK-MEL-2 melanoma is greater than 100 µM; in the test with CCRF-CEM leukemia it was 61.6 µM; with NCI-H226 lung, greater than 100 µM; in the test with NCI-H23 lung it was greater than 100 µM; with SF-268 CNS, greater than 100 µM; in the test with OVCAR-5 ovarian it was greater than 100 µM. The TGI in the test with M14 melanoma and in the test with NCI/ADR-RES ovarian was greater than 100 µM in each case.

Consider `NC(N)=NCc1ccc2c(c1)OCO2`, for which the TGI in the test with HOP-92 NSCLC, with HL-60(TB) leukemia, in the test on LOX IMVI melanoma, in the test with SW-620 colon, with MDA-MB-435 and in the test on OVCAR-3 ovarian was greater than 100 µM throughout. For the same compound, the TGI with SK-MEL-2 melanoma, in the test with CCRF-CEM leukemia, with NCI-H23 lung, with SF-268 CNS, with K-562 leukemia and with HCC-2998 colon was greater than 100 µM in each case. The TGI with OVCAR-5 ovarian, in the test with M14 melanoma and in the test on NCI/ADR-RES ovarian was greater than 100 µM throughout.

For the compound `CC1(C)C(=O)N(O)C(C)(C)N1N=O`, the TGI in the test with HOP-92 NSCLC, in the test on HL-60(TB) leukemia, in the test with SW-620 colon, in the test with MDA-MB-435, in the test on OVCAR-3 ovarian and with SK-MEL-2 melanoma was greater than 10 µM each time. Also, the TGI with CCRF-CEM leukemia, with NCI-H226 lung, in the test on NCI-H23 lung, in the test with SF-268 CNS, in the test with K-562 leukemia and in the test on HCC-2998 colon was greater than 10 µM throughout. Also, the TGI in the test on OVCAR-5 ovarian, in the test with M14 melanoma and in the test on NCI/ADR-RES ovarian was greater than 10 µM in each case.

Consider `Cc1ccc(C(=O)OC(C)C)cc1N=NN(C)C`, for which the TGI in the test with HOP-92 NSCLC, with HL-60(TB) leukemia, in the test with LOX IMVI melanoma, with SW-620 colon, with MDA-MB-435 and in the test with OVCAR-3 ovarian was greater than 100 µM in each case. In addition, the TGI in the test with SK-MEL-2 melanoma, in the test on CCRF-CEM leukemia, with NCI-H23 lung, in the test with SF-268 CNS, in the test with K-562 leukemia and in the test with HCC-2998 colon was greater than 100 µM each time. The TGI with OVCAR-5 ovarian, in the test with M14 melanoma and in the test on NCI/ADR-RES ovarian was greater than 100 µM throughout.

On to `C[N+]1(C)CCOC(O)(c2ccccc2)C1` (configuration not stated), for which the TGI in the test on HOP-92 NSCLC, in the test on HL-60(TB) leukemia, in the test with LOX IMVI melanoma, in the test on SW-620 colon, with MDA-MB-435 and in the test with OVCAR-3 ovarian was greater than 100 µM each time. The TGI in the test with SK-MEL-2 melanoma, in the test on CCRF-CEM leukemia, with NCI-H226 lung, in the test with NCI-H23 lung, with SF-268 CNS and in the test with K-562 leukemia was greater than 100 µM in each case. Further, the TGI with OVCAR-5 ovarian, in the test on M14 melanoma and in the test on NCI/ADR-RES ovarian was greater than 100 µM each time.
